How the values were obtained:
Assay in all cases: Kinase panel study
Assay type in all cases: biochemical
Details in all cases: read-out: Percentage of inhibition; for inhibition at 1 µM: 1000nM; for inhibition at 10 µM: 10000nM
SRC N1 = target: T1, SRC N1 (Homo sapiens, UniProt P12931)
T1 construct: purchased Thermo Fisher Scientific
In short: (§1)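 Readout is percentage kinase inhibition. Testing used 1 µM or 10 µM compound in externally run ZLyte/Adapta in vitro assays, and IC50 values were derived within the same panel.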

MAPK12 (p38 gamma) = target: T2, MAPK12 (p38 gamma) (Homo sapiens, UniProt P53778)
T2 construct: purchased Thermo Fisher Scientific
T2 sequence (P53778 1-367): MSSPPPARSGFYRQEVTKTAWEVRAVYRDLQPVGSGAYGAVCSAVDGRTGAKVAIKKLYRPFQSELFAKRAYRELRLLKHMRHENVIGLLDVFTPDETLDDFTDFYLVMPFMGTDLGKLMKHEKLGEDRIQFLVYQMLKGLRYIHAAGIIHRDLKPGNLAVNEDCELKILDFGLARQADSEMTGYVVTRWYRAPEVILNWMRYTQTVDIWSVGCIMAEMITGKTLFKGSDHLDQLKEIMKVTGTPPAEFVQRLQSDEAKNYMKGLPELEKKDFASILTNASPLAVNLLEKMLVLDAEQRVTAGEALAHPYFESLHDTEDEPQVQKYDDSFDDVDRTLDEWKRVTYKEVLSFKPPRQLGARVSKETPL
In short: as §1

ABL1 G250E = target: T3, ABL1 G250E (Homo sapiens, UniProt P00519, G250E)
T3 construct: purchased Thermo Fisher Scientific
In short: as §1

T1 sequence (P12931 1-542 isoform P12931-2): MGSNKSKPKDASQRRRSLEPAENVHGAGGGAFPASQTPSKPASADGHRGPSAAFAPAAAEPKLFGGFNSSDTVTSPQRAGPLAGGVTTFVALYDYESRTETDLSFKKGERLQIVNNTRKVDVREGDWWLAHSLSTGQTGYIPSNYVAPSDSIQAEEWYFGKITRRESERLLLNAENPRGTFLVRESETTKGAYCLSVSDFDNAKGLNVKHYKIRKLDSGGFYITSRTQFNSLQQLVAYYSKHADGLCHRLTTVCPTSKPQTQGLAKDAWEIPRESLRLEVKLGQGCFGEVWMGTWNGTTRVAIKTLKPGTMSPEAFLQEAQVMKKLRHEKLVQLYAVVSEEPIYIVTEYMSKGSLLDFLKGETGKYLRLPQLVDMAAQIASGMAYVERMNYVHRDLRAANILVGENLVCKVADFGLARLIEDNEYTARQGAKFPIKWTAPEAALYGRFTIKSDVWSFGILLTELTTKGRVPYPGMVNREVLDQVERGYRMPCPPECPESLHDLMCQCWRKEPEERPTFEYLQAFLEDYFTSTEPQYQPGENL

## COc1ccc2cc3c(N)nn(C(=O)c4cccc(N(C)C)c4)c3nc2c1 [MW05, (3-Amino-7-methoxypyrazolo[3,4-b]quinolin-1-yl)-[3-(dimethylamino)phenyl]methanone]
SRC N1
  inhibition at 1 µM: 16%
  inhibition at 10 µM: 14%
MAPK12 (p38 gamma)
  inhibition at 1 µM: 4%
  inhibition at 10 µM: 4%
ABL1 G250E
  inhibition at 1 µM: 12%
  inhibition at 10 µM: 0%

## COc1ccc2c(c1OC)c(=O)n1c3ccc(O)cc3c3ccnc2c31 [MW01, 5-Hydroxy-10,11-dimethoxy-9H-benzo[c]indolo[3,2,1-ij][1,5]naphthyridin-9-one]
SRC N1
  inhibition at 1 µM: 15%
  inhibition at 10 µM: 25%
MAPK12 (p38 gamma)
  inhibition at 1 µM: 8%
  inhibition at 10 µM: 11%
ABL1 G250E
  inhibition at 1 µM: 9%
  inhibition at 10 µM: 32%
